The text below walks through data of patent publication US8273777B2, “Glucokinase activators and methods of using same” (Bristol-Meyer Squibb Company, priority 2007, dated 2012).

One assay deals with T1, human glucokinase (GK) (Homo sapiens, UniProt P35557).
T1 construct: Full-length human hepatic GK (untagged) was expressed in BL21 STAR (DE3)pLysS cells; made in house; host or cells: E. coli BL21 STAR (DE3)pLysS (Invitrogen)
T1 sequence (P35557 1-466 isoform P35557-2): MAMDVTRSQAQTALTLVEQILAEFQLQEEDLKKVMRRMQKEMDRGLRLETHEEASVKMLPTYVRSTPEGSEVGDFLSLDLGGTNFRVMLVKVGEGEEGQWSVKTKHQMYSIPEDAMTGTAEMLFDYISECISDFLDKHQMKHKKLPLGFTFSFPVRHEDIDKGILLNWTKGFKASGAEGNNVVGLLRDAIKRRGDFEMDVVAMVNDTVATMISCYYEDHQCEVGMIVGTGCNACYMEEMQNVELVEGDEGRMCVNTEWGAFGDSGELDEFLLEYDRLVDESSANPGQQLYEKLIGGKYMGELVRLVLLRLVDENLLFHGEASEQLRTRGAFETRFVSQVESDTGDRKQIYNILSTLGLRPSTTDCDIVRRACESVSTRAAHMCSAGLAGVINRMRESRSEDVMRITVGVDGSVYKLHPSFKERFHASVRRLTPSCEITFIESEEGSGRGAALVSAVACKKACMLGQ
Nature of the assay: Glucokinase tandem enzymatic assay. In kind it is biochemical. The following applies: 12 mM glucose; for EC50: EC50 = concentration to achieve 50% of full activation; for Emax: expressed as % of basal activation, EC50 could not be calculated, read-out: Maximal activation (%) Human Glucokinase @ 12 mM Glucose. The method, then: Glucokinase Tandem Enzymatic Assay
Enzymatic activity of human glucokinase (GK) was measured by incubating GK, ATP, and glucose for discrete time periods followed by quenching with EDTA (ethylenediamine tetra-acetic acid). Relative amounts of product glucose-6-phosphate (G6P) were measured by then running a detection assay using G6P dehydrogenase and measuring the conversion of ThioNAD (thio-nicotinamide adenine dinucleotide) to ThioNADH (thio-dihydronicotinamide adenine dinucleotide) at a wavelength of 405 nm. This ‘uncoupled’ enzymatic reaction is denoted as the GK ‘tandem’ assay. Activation of GK by compounds can be assessed using this assay. The GK tandem assay protocol described below was followed using a range of activator compound concentrations from 0 to 100 μM at 5 and 12 mM of glucose. Human full-length glucokinase (GK, 15 nM) was incubated with 5 or 12 mM glucose in a 384 well black microtiter plate with a clear bottom. To initiate the GK reaction, magnesium-ATP (3 mM final concentration) was added to GK in buffer (final buffer conditions of 25 mM HEPES buffer, pH 7.1, containing 1 mM dithiothreitol and 5% DMSO). The total reaction volume was 20 μL The reaction was allowed to proceed for ten minutes and was then quenched with 5 μL EDTA; 45 mM final). The components of the detection reaction, ThioNAD and G6PDH (glucose-6-phosphate dehydrogenase) (final concentrations of 650 μM and 3.33 Units, respectively), were then added together in a volume of 25 μL (to give a total volume of 50 μL). Absorbance measurements were made at 405 nm on a Spectramax Plus 384 absorbance plate reader (Molecular Devices). Absorbance was read, background glucose-6-phosphate levels were subtracted, after which activation was calculated as a percentage of control activity. Control activity was determined using GK in the presence of vehicle (DMSO), with background glucose-6-phosphate subtracted. Background glucose-6-phosphate was determined by pre-quenching GK with EDTA prior to reaction initiation with ATP.
Expression and Purification of Human GK
Full-length human hepatic GK (untagged) was expressed in BL21 STAR (DE3)pLysS cells (Invitrogen) at 25° C. as described by Mookhtiar et al. (1). The protein was purified essentially as described by Lange (2) with a slight modification. Briefly, cell pellets were lysed via three rounds of freezing and thawing, centrifuged at 15000 g for clarification, and precipitated with 40-65% (NH4)2SO4. The resulting pellet was resuspended in buffer, dialyzed, and applied directly to a Q-Sepharose (Sigma) column followed by elution with a linear 100-600 mM KCl gradient. GK containing fractions were pooled, dialyzed overnight vs. 25 mM Hepes pH 7.2/1 mM MgCl2/1 mM EDTA/0.1 M KCl/1 mM DTT, then dialyzed again with same buffer with 10% glycerol added.

Assay [1] has as its system male DIO (diet-induced obese) C57BL/6J mice. Nature of the assay: Oral glucose tolerance test (OGTT) in DIO mice. In kind it is in vivo. Particulars: 30 mg/kg dose, given orally 60 min before glucose 2 g/kg, ΔAUC 0-120 min. As for the experimental part:
In Vivo Studies: Oral Glucose Tolerance Test (OGTT)
Oral glucose tolerance tests were carried out on male DIO (diet-induced obese) C57BL/6J mice fed a high fat diet (60% kcal from fat) for 26 weeks prior to experimentation. Mice were fasted overnight before use for experiments. A test compound or vehicle (10% dimethyl acetamide +10% ethanol +10% Cremophore +70% water) was given orally 60 min before oral administration of a glucose solution at a dose of 2 g/kg body weight (oral glucose tolerance test; OGTT). Blood glucose levels were measured from tail-bled samples taken at different time points before and after administration of glucose (time course of 2 hours). A time curve of the blood glucose was generated and the change from baseline area-under-the curve (ΔAUC) from 0-120 min was calculated (the time glucose administration being time zero).

Compound `COC[C@H](C)Oc1cc(NC(=O)c2nc3ccccc3s2)cc(Oc2ccc(S(C)(=O)=O)cc2)c1` [Example 5] returned an EC50 on human glucokinase (GK) of 165 nM.

As to `COC[C@H](C)Oc1cc(NC(=O)c2c[nH]cn2)cc(Oc2ccc(S(C)(=O)=O)cc2)c1` [Example 6], in assay [1], the “reduction of glucose AUC levels in OGTT” value amounted to 66%. In addition, a half-maximal effect at human glucokinase (GK) (EC50) was put at 191 nM.

For `COC[C@H](C)Oc1cc(NC(=O)c2ncn[nH]2)cc(Oc2ccc(S(C)(=O)=O)cc2)c1` [Example 7], the Emax at human glucokinase (GK) is 131%.

At human glucokinase (GK), `COC[C@H](C)Oc1cc(NC(=O)c2cc[nH]n2)cc(Oc2ccc(S(C)(=O)=O)cc2)c1` [Example 8] displayed a half-maximal effective concentration (EC50) of 513 nM.

With `COC[C@H](C)Oc1cc(NC(=O)c2ncc(C)s2)cc(Oc2ccc(S(C)(=O)=O)cc2)c1` [Example 18], the EC50 on human glucokinase (GK) was found to be 67 nM.

Regarding `Cc1cnc(C(=O)Nc2cc(Oc3ccc(S(C)(=O)=O)cc3)cc(O[C@@H](C)CO)c2)s1` [Example 22], the response on human glucokinase (GK) was half-maximal at 77 nM (EC50).

In turn, `CS(=O)(=O)c1ccc(Oc2cc(NC(=O)c3c[nH]cn3)cc(Oc3ccc(S(C)(=O)=O)cc3)c2)cc1` [Example 31] showed a concentration for a half-maximal effect (EC50) on human glucokinase (GK) of 575 nM.

Take `CS(=O)(=O)c1ccc(Oc2cc(NC(=O)c3nccs3)cc(C(F)(F)F)c2)cc1` [Example 37]: at human glucokinase (GK), the Emax was 163%.

One may read the EC50 as the concentration giving half of the maximal effect.
